Laboratory results as given in patent publication US9096595B2, “7-(heteroaryl-amino)-6,7,8,9-tetrahydropyrido[1,2-a]indol acetic acid derivatives and their use as prostaglandin D2 receptor modulators” (Actelion Pharmaceuticals Ltd, priority 2011, dated 2015).

Experiments:
hCRTH2 receptor [1] = target: T1, hCRTH2 receptor (Homo sapiens (Human), UniProt Q9Y5Y4); experiment: hCRTH2 receptor membranes radioligand (3H-PGD2) displacement assay; conditions: 3H-PGD2 2.5 nM, HEK293-hCRTH2 membrane fragments, Binding-Buffer with 0.1% BSA
T1 sequence (Q9Y5Y4 whole entry, the tested form may be a part): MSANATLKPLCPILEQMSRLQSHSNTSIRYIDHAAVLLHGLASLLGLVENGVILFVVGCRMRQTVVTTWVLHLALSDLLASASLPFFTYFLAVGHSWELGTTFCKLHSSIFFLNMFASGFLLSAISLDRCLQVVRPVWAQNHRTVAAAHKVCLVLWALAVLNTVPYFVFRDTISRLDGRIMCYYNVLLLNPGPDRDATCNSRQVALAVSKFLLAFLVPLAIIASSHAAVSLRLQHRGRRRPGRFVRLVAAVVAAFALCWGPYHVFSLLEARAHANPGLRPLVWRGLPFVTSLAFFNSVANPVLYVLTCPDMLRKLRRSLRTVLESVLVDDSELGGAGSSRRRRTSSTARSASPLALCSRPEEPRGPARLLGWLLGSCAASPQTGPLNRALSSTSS
Method: (§1) First, recombinant HEK293-hCRTH2 cells were detached from culture plates into 5 ml buffer A/plate (Buffer A: 5 mM Tris, 1 mM MgCl2-6H2O pH=7.4) using a rubber policeman. Cells were then transferred into centrifugation tubes and centrifuged for 5 min at 400 g. The cell pellet was resuspended in the same buffer and tubes were frozen at −80° C. Cells were thawed and membrane fragments were generated by homogenization using a polytron homogenizer (30 seconds). The membrane fragments were then centrifuged at 3000 g for 20 minutes and resuspended in buffer C (Buffer C: 75 mM Tris, 25 mM MgCl2, 250 mM Saccharose pH 7.4). Aliquots of membrane fragments were stored at −20° C.
(§2) Binding assay was performed in a final assay volume of 250 μl. First, 25 μl of test compound, previously diluted in Binding-Buffer (Binding-Buffer: 50 mM Tris-Base, 100 mM NaCl, 1 mM EDTA, 0.1% BSA (protease free), 0.01% NaN3, 10 mM MnCl2 pH 7.0) was placed into each well. After addition of 75 μl Binding-Buffer, 50 μl of the radioligand ^3H-PGD2 (at 2.5 nM (220.000 dpm/well) from ANAWA ART0662) was added to each well. Binding assay was started by addition of 100 μl CRTH2 membrane fragments, reaching a final concentration of 20 μg/well. For non-specific binding, PGD2 was added to the reaction mixture to […] final concentration. This assay mix was incubated for 90 minutes at room temperature and then filtered through a GF/C filter 96-well plate which was pre-soaked for 3 hours in 0.5% polyethyleneimine (PEI). The filter-wells were washed three times with ice cold Binding-Buffer. Then, 40 μl of Microscint-40 (Packard) was added to each well and the retained radioactivity quantified in a Topcount (Packard).

hCRTH2 receptor [2] = target: T1, hCRTH2 receptor; experiment: Radioligand displacement assay in presence of human serum albumin (HSA); conditions: 3H-PGD2 2.5 nM, HEK293-hCRTH2 membrane fragments, Binding-Buffer-HSA with 0.5% human serum albumin instead of 0.1% BSA
Method: as §1, §2
Radioligand displacement assay in presence of human serum albumin (HSA) was performed as described above, with following modifications. Binding-Buffer-HSA: Binding-buffer+0.5% Sigma Albumin from Human serum A1887 (instead of 0.1% BSA). A volume of 25 μl test compound, previously diluted in Binding-Buffer-HSA was placed into each well. After addition of 75 μl Binding-Buffer-HSA, 50 μl of ^3H-PGD2 (at 2.5 nM (220.000 dpm/well) from ANAWA ART0662) was added to each well. Remaining protocol was identical as described above.

Question: What does the source list for `CN(c1ncc(F)cn1)C1CCc2c(CC(=O)O)c3ccc(C(F)(F)F)cc3n2C1` (stereo not drawn) [Example 24, 2-(7-((5-fluoropyrimidin-2-yl)(methyl)amino)-3-(trifluoromethyl)-6,7,8,9-tetrahydropyrido[1,2-a]indol-10-yl)acetic acid]?
Answer: IC50 (hCRTH2 receptor [1]): 5 nM; IC50 (hCRTH2 receptor [2]): 11 nM

Question: Which IC50 (hCRTH2 receptor [1]) does the source give for `CN(c1nc2ccc(F)cc2s1)C1CCc2c(CC(=O)O)c3ccc(C(F)(F)F)cc3n2C1` (stereo not drawn) [Example 26, 2-(7-((6-fluorobenzo[d]thiazol-2-yl)(methyl)amino)-3-(trifluoromethyl)-6,7,8,9-tetrahydropyrido[1,2-a]indol-10-yl)acetic acid] here?
Answer: The IC50 was 16 nM.

Question: And the IC50 (hCRTH2 receptor [2])?
Answer: Its IC50 is 15 nM.

Question: With `CN(c1nc2cc(F)ccc2o1)C1CCc2c(CC(=O)O)c3ccc(C(F)(F)F)cc3n2C1` (stereo not drawn) [Example 28, 2-(7-((5-fluorobenzo[d]oxazol-2-yl)(methyl)amino)-3-(trifluoromethyl)-6,7,8,9-tetrahydropyrido[1,2-a]indol-10-yl)acetic acid] as the molecule, how does the IC50 (hCRTH2 receptor [1]) read?
Answer: The IC50 was 8 nM.

Question: And the IC50 (hCRTH2 receptor [2])?
Answer: The IC50 was 20 nM.

Question: What does the source list for `CN(c1nc2cc(F)ccc2o1)C1CCc2c(CC(=O)O)c3ccc(Cl)cc3n2C1` (stereo not drawn) [Example 31, 2-(3-chloro-7-((5-fluorobenzo[d]oxazol-2-yl)(methyl)amino)-6,7,8,9-tetrahydropyrido[1,2-a]indol-10-yl)acetic acid]?
Answer: IC50 (hCRTH2 receptor [1]): 5 nM; IC50 (hCRTH2 receptor [2]): 13 nM

Question: Which IC50 (hCRTH2 receptor [1]) does the source give for `O=C(O)Cc1c2n(c3cc(F)ccc13)CC(Nc1ncc(F)cn1)CC2` (stereo not drawn) [Example 34, 2-(3-fluoro-7-((5-fluoropyrimidin-2-yl)amino)-6,7,8,9-tetrahydropyrido[1,2-a]indol-10-yl)acetic acid] here?
Answer: The IC50 was 9 nM.

Question: And the IC50 (hCRTH2 receptor [2])?
Answer: Its IC50 is 304 nM.

Question: How did the IC50 (hCRTH2 receptor [1]) turn out when `O=C(O)Cc1c2n(c3cc(F)ccc13)CC(Nc1nc3cc(F)ccc3o1)CC2` (stereo not drawn) [Example 35, 2-(3-fluoro-7-((5-fluorobenzo[d]oxazol-2-yl)amino)-6,7,8,9-tetrahydropyrido[1,2-a]indol-10-yl)acetic acid] was run?
Answer: Its IC50 is 11 nM.

Question: What about the IC50 (hCRTH2 receptor [2]) of the same molecule?
Answer: The IC50 was 20 nM.

Question: Which IC50 (hCRTH2 receptor [1]) does the source give for `O=C(O)Cc1c2n(c3cc(Cl)ccc13)CC(Nc1ncc(F)cn1)CC2` (stereo not drawn) [Example 36, 2-(3-chloro-7-((5-fluoropyrimidin-2-yl)amino)-6,7,8,9-tetrahydropyrido[1,2-a]indol-10-yl)acetic acid] here?
Answer: Its IC50 is 65 nM.

Question: What about the IC50 (hCRTH2 receptor [2]) of the same molecule?
Answer: The IC50 was 465 nM.

Question: With `O=C(O)Cc1c2n(c3cc(Cl)ccc13)CC(Nc1ncc(Cl)cn1)CC2` (stereo not drawn) [Example 37, 2-(3-chloro-7-((5-chloropyrimidin-2-yl)amino)-6,7,8,9-tetrahydropyrido[1,2-a]indol-10-yl)acetic acid] as the molecule, how does the IC50 (hCRTH2 receptor [1]) read?
Answer: Its IC50 is 27 nM.

Question: And the IC50 (hCRTH2 receptor [2])?
Answer: Its IC50 is 385 nM.

Question: What does the source list for `Cc1cnc(N(C)C2CCc3c(CC(=O)O)c4ccc(Cl)cc4n3C2)nc1` (stereo not drawn) [Example 38, 2-(3-chloro-7-(methyl(5-methylpyrimidin-2-yl)amino)-6,7,8,9-tetrahydropyrido[1,2-a]indol-10-yl)acetic acid]?
Answer: IC50 (hCRTH2 receptor [1]): 2 nM; IC50 (hCRTH2 receptor [2]): 246 nM

Question: Which results are given for `CN(c1ncc2ccccc2n1)C1CCc2c(CC(=O)O)c3ccc(Cl)cc3n2C1` (stereo not drawn) [Example 39, 2-(3-chloro-7-(methyl(quinazolin-2-yl)amino)-6,7,8,9-tetrahydropyrido[1,2-a]indol-10-yl)acetic acid]?
Answer: IC50 (hCRTH2 receptor [1]): 3 nM; IC50 (hCRTH2 receptor [2]): 5 nM

Question: For `CN(c1ncc2cc(F)ccc2n1)C1CCc2c(CC(=O)O)c3ccc(Cl)cc3n2C1` (stereo not drawn) [Example 40, 2-(3-chloro-7-((6-fluoroquinazolin-2-yl)(methyl)amino)-6,7,8,9-tetrahydropyrido[1,2-a]indol-10-yl)acetic acid], which IC50 (hCRTH2 receptor [1]) is on record?
Answer: The IC50 was 5 nM.

Question: What about the IC50 (hCRTH2 receptor [2]) of the same molecule?
Answer: Its IC50 is 4 nM.

Question: `CN(c1ncc2ccc(F)cc2n1)C1CCc2c(CC(=O)O)c3ccc(Cl)cc3n2C1` (stereo not drawn) [Example 41, 2-(3-chloro-7-((7-fluoroquinazolin-2-yl)(methyl)amino)-6,7,8,9-tetrahydropyrido[1,2-a]indol-10-yl)acetic acid] was tested. Which IC50 (hCRTH2 receptor [1]) did it give?
Answer: The IC50 was 1 nM.

Question: And the IC50 (hCRTH2 receptor [2])?
Answer: The IC50 was 37 nM.

Question: `CN(c1cnc2cc(F)ccc2n1)C1CCc2c(CC(=O)O)c3ccc(Cl)cc3n2C1` (stereo not drawn) [Example 43, 2-(3-chloro-7-((6-fluoroquinoxalin-2-yl)(methyl)amino)-6,7,8,9-tetrahydropyrido[1,2-a]indol-10-yl)acetic acid] was tested. Which IC50 (hCRTH2 receptor [1]) did it give?
Answer: The IC50 was 2 nM.

Question: What about the IC50 (hCRTH2 receptor [2]) of the same molecule?
Answer: Its IC50 is 12 nM.

Question: What does the source list for `O=C(O)Cc1c2n(c3cc(Cl)ccc13)CC(N(CC(F)F)c1nc3cc(F)ccc3o1)CC2` (stereo not drawn) [Example 44, 2-(3-chloro-7-((2,2-difluoroethyl)(5-fluorobenzo[d]oxazol-2-yl)amino)-6,7,8,9-tetrahydropyrido[1,2-a]indol-10-yl)acetic acid]?
Answer: IC50 (hCRTH2 receptor [1]): 3 nM; IC50 (hCRTH2 receptor [2]): 6 nM

Question: What does the source list for `CCN(c1ncc(F)cn1)C1CCc2c(CC(=O)O)c3ccc(Cl)cc3n2C1` (stereo not drawn) [Example 45, 2-(3-chloro-7-(ethyl(5-fluoropyrimidin-2-yl)amino)-6,7,8,9-tetrahydropyrido[1,2-a]indol-10-yl)acetic acid]?
Answer: IC50 (hCRTH2 receptor [1]): 1 nM; IC50 (hCRTH2 receptor [2]): 3 nM

Question: With `CC(C)N(c1nc2cc(F)ccc2o1)C1CCc2c(CC(=O)O)c3ccc(Cl)cc3n2C1` (stereo not drawn) [Example 46, 2-(3-chloro-7-((5-fluorobenzo[d]oxazol-2-yl)(isopropyl)amino)-6,7,8,9-tetrahydropyrido[1,2-a]indol-10-yl)acetic acid] as the molecule, how does the IC50 (hCRTH2 receptor [1]) read?
Answer: The IC50 was 3 nM.

Question: And the IC50 (hCRTH2 receptor [2])?
Answer: The IC50 was 5 nM.

Question: `COCCN(c1ncc(F)cn1)C1CCc2c(CC(=O)O)c3ccc(Cl)cc3n2C1` (stereo not drawn) [Example 47, 2-(3-chloro-7-((5-fluoropyrimidin-2-yl)(2-methoxyethyl)amino)-6,7,8,9-tetrahydropyrido[1,2-a]indol-10-yl)acetic acid] was tested. Which IC50 (hCRTH2 receptor [1]) did it give?
Answer: The IC50 was 0.8 nM.

Question: And the IC50 (hCRTH2 receptor [2])?
Answer: The IC50 was 69 nM.

Question: What does the source list for `CC(C)CN(c1nc2cc(F)ccc2o1)C1CCc2c(CC(=O)O)c3ccc(Cl)cc3n2C1` (stereo not drawn) [Example 48, 2-(3-chloro-7-((5-fluorobenzo[d]oxazol-2-yl)(isobutyl)amino)-6,7,8,9-tetrahydropyrido[1,2-a]indol-10-yl)acetic acid]?
Answer: IC50 (hCRTH2 receptor [1]): 2 nM; IC50 (hCRTH2 receptor [2]): 6 nM

Question: How did the IC50 (hCRTH2 receptor [1]) turn out when `CCCN(c1ncc(F)cn1)C1CCc2c(CC(=O)O)c3ccc(Cl)cc3n2C1` (stereo not drawn) [Example 49, 2-(3-chloro-7-((5-fluoropyrimidin-2-yl)(propyl)amino)-6,7,8,9-tetrahydropyrido[1,2-a]indol-10-yl)acetic acid] was run?
Answer: The IC50 was 1 nM.

Question: And the IC50 (hCRTH2 receptor [2])?
Answer: The IC50 was 21 nM.

Question: `CCN(c1nc2cc(F)ccc2o1)C1CCc2c(CC(=O)O)c3ccc(Cl)cc3n2C1` (stereo not drawn) [Example 50, 2-(3-chloro-7-(ethyl(5-fluorobenzo[d]oxazol-2-yl)amino)-6,7,8,9-tetrahydropyrido[1,2-a]indol-10-yl)acetic acid] was tested. Which IC50 (hCRTH2 receptor [1]) did it give?
Answer: Its IC50 is 1 nM.

Question: And the IC50 (hCRTH2 receptor [2])?
Answer: Its IC50 is 9 nM.

Question: What does the source list for `O=C(O)Cc1c2n(c3cc(Cl)ccc13)CC(N(CC1CC1)c1ncc(F)cn1)CC2` (stereo not drawn) [Example 51, 2-(3-chloro-7-((cyclopropylmethyl)(5-fluoropyrimidin-2-yl)amino)-6,7,8,9-tetrahydropyrido[1,2-a]indol-10-yl)acetic acid]?
Answer: IC50 (hCRTH2 receptor [1]): 0.6 nM; IC50 (hCRTH2 receptor [2]): 9 nM
